System: 947758-054-R-J2-PDC spheroid growth, percent test/control
Assay: Anticancer human tumor 947758-054-R-J2-PDC patient-derived colon adenocarcinoma cell line growth inhibition [CLK]
Settings: spheroids with HUVEC and MSC; for IC50: curve of first compound; for viability, T/C: stronger effect = lower value
In short: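 Multi-cell-type spheroids combined patient-derived tumor cells with HUVEC endothelial cells and human mesenchymal stem cells. Paired agents were dosed in half-log steps down from about clinical Cmax, or from 10 microM where Cmax was unknown.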
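Further: spheroids exposed to compounds for one week before readout.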
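Wherever viability, T/C is given: 100% = DMSO vehicle control wells.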

## C=CC(=O)Nc1cc(Nc2nccc(-c3cn(C)c4ccccc34)n2)c(OC)cc1N(C)CCN(C)C + CN1CCN(c2cc(C(=O)Nc3cc4cc(-c5cnn(C)c5)ccc4cn3)ccn2)CC1
Second compound 0.0316 µM
  IC50: > 0.3 µM
Second compound 0.1 µM
  IC50: > 0.3 µM
Second compound 0.316 µM
  IC50: < 0.000949 µM
Second compound 1 µM
  IC50: < 0.000949 µM
Second compound 3.16 µM
  IC50: < 0.000949 µM
Second compound 10 µM
  IC50: < 0.000949 µM
Second compound 0.0316 µM, first compound 0.000949 µM
  viability, T/C: 102%
Second compound 0.0316 µM, first compound 0.003 µM
  viability, T/C: 111%
Second compound 0.0316 µM, first compound 0.00949 µM
  viability, T/C: 100%
Second compound 0.0316 µM, first compound 0.03 µM
  viability, T/C: 81.4%
Second compound 0.0316 µM, first compound 0.0949 µM
  viability, T/C: 116%
Second compound 0.0316 µM, first compound 0.3 µM
  viability, T/C: 137%
Second compound 0.1 µM, first compound 0.000949 µM
  viability, T/C: 157%
Second compound 0.1 µM, first compound 0.003 µM
  viability, T/C: 163%
Second compound 0.1 µM, first compound 0.00949 µM
  viability, T/C: 152%
Second compound 0.1 µM, first compound 0.03 µM
  viability, T/C: 179%
Second compound 0.1 µM, first compound 0.0949 µM
  viability, T/C: 120%
Second compound 0.1 µM, first compound 0.3 µM
  viability, T/C: 106%
Second compound 0.316 µM, first compound 0.000949 µM
  viability, T/C: 4.91%
Second compound 0.316 µM, first compound 0.003 µM
  viability, T/C: 4.6%
Second compound 0.316 µM, first compound 0.00949 µM
  viability, T/C: 2.55%
Second compound 0.316 µM, first compound 0.03 µM
  viability, T/C: 3.23%
Second compound 0.316 µM, first compound 0.0949 µM
  viability, T/C: 2.33%
Second compound 0.316 µM, first compound 0.3 µM
  viability, T/C: 3.21%
Second compound 1 µM, first compound 0.000949 µM
  viability, T/C: 0.14%
Second compound 1 µM, first compound 0.003 µM
  viability, T/C: 0.99%
Second compound 1 µM, first compound 0.00949 µM
  viability, T/C: 0.15%
Second compound 1 µM, first compound 0.03 µM
  viability, T/C: 0.13%
Second compound 1 µM, first compound 0.0949 µM
  viability, T/C: 0.11%
Second compound 1 µM, first compound 0.3 µM
  viability, T/C: 0.14%
Second compound 3.16 µM, first compound 0.000949 µM
  viability, T/C: 0.4%
Second compound 3.16 µM, first compound 0.003 µM
  viability, T/C: 1.42%
Second compound 3.16 µM, first compound 0.00949 µM
  viability, T/C: 1.1%
Second compound 3.16 µM, first compound 0.03 µM
  viability, T/C: 0.23%
Second compound 3.16 µM, first compound 0.0949 µM
  viability, T/C: 2.07%
Second compound 3.16 µM, first compound 0.3 µM
  viability, T/C: 1.52%
Second compound 10 µM, first compound 0.000949 µM
  viability, T/C: 0.82%
Second compound 10 µM, first compound 0.003 µM
  viability, T/C: 0.35%
Second compound 10 µM, first compound 0.00949 µM
  viability, T/C: 1%
Second compound 10 µM, first compound 0.03 µM
  viability, T/C: 1.25%
Second compound 10 µM, first compound 0.0949 µM
  viability, T/C: 0.32%
Second compound 10 µM, first compound 0.3 µM
  viability, T/C: 0.26%

## Nc1ccccc1NC(=O)c1ccc(CNC(=O)OCc2cccnc2)cc1 + CN1CCN(c2cc(C(=O)Nc3cc4cc(-c5cnn(C)c5)ccc4cn3)ccn2)CC1
Second compound 0.0316 µM
  IC50: 4.62 µM
Second compound 0.1 µM
  IC50: 2.7 µM
Second compound 0.316 µM
  IC50: < 0.0316 µM
Second compound 1 µM
  IC50: < 0.0316 µM
Second compound 3.16 µM
  IC50: < 0.0316 µM
Second compound 10 µM
  IC50: < 0.0316 µM
Second compound 0.0316 µM, first compound 0.0316 µM
  viability, T/C: 133%
Second compound 0.0316 µM, first compound 0.1 µM
  viability, T/C: 136%
Second compound 0.0316 µM, first compound 0.316 µM
  viability, T/C: 153%
Second compound 0.0316 µM, first compound 1 µM
  viability, T/C: 166%
Second compound 0.0316 µM, first compound 3.16 µM
  viability, T/C: 70.3%
Second compound 0.0316 µM, first compound 10 µM
  viability, T/C: 8.87%
Second compound 0.1 µM, first compound 0.0316 µM
  viability, T/C: 188%
Second compound 0.1 µM, first compound 0.1 µM
  viability, T/C: 178%
Second compound 0.1 µM, first compound 0.316 µM
  viability, T/C: 190%
Second compound 0.1 µM, first compound 1 µM
  viability, T/C: 129%
Second compound 0.1 µM, first compound 3.16 µM
  viability, T/C: 39.4%
Second compound 0.1 µM, first compound 10 µM
  viability, T/C: 4.71%
Second compound 0.316 µM, first compound 0.0316 µM
  viability, T/C: 2.88%
Second compound 0.316 µM, first compound 0.1 µM
  viability, T/C: 6%
Second compound 0.316 µM, first compound 0.316 µM
  viability, T/C: 2.2%
Second compound 0.316 µM, first compound 1 µM
  viability, T/C: 0.82%
Second compound 0.316 µM, first compound 3.16 µM
  viability, T/C: 1.3%
Second compound 0.316 µM, first compound 10 µM
  viability, T/C: 0.07%
Second compound 1 µM, first compound 0.0316 µM
  viability, T/C: 0.15%
Second compound 1 µM, first compound 0.1 µM
  viability, T/C: 0.18%
Second compound 1 µM, first compound 0.316 µM
  viability, T/C: 0.2%
Second compound 1 µM, first compound 1 µM
  viability, T/C: 0.12%
Second compound 1 µM, first compound 3.16 µM
  viability, T/C: 0.57%
Second compound 1 µM, first compound 10 µM
  viability, T/C: 2.05%
Second compound 3.16 µM, first compound 0.0316 µM
  viability, T/C: 0.21%
Second compound 3.16 µM, first compound 0.1 µM
  viability, T/C: 0.63%
Second compound 3.16 µM, first compound 0.316 µM
  viability, T/C: 0.29%
Second compound 3.16 µM, first compound 1 µM
  viability, T/C: 0.28%
Second compound 3.16 µM, first compound 3.16 µM
  viability, T/C: 0.32%
Second compound 3.16 µM, first compound 10 µM
  viability, T/C: 2.87%
Second compound 10 µM, first compound 0.0316 µM
  viability, T/C: 0.31%
Second compound 10 µM, first compound 0.1 µM
  viability, T/C: 0.32%
Second compound 10 µM, first compound 0.316 µM
  viability, T/C: 1.85%
Second compound 10 µM, first compound 1 µM
  viability, T/C: 0.43%
Second compound 10 µM, first compound 3.16 µM
  viability, T/C: 0.45%
Second compound 10 µM, first compound 10 µM
  viability, T/C: 2.2%
